{"source": "the CombiSolv-Exp solvation set (Vermeire and Green 2021)", "experiment": "solvent given as SMILES"}
{"compound": "CCC=CCC", "values": [{"measurement": "solvation free energy, 298 K", "setting": "in C=CCCCCCCCCCCCCCC", "value": -3.51, "unit": "kcal/mol"}, {"measurement": "solvation free energy, 298 K", "setting": "in O", "value": 1.62, "unit": "kcal/mol"}]}
{"compound": "O=C(O)c1ccccc1[N+](=O)[O-]", "values": [{"measurement": "solvation free energy, 298 K", "setting": "in CCCCCCCCO", "value": -12.5, "unit": "kcal/mol"}]}
{"compound": "FC(F)C(F)Oc1ccccc1", "note": "(centres undefined)", "values": [{"measurement": "solvation free energy, 298 K", "setting": "in O", "value": -1.29, "unit": "kcal/mol"}]}
{"compound": "CCCC=O", "values": [{"measurement": "solvation free energy, 298 K", "setting": "in C1CCOC1", "value": -4.42, "unit": "kcal/mol"}, {"measurement": "solvation free energy, 298 K", "setting": "in C=CCCCC", "value": -3.65, "unit": "kcal/mol"}, {"measurement": "solvation free energy, 298 K", "setting": "in C=CCCCCCCCCCCCCCC", "value": -3.15, "unit": "kcal/mol"}, {"measurement": "solvation free energy, 298 K", "setting": "in CC(C)CC(C)(C)C", "value": -3.45, "unit": "kcal/mol"}, {"measurement": "solvation free energy, 298 K", "setting": "in CC(C)CCCC(C)CCCC(C)CCCCC(C)CCCC(C)CCCC(C)C", "value": -3.09, "unit": "kcal/mol"}, {"measurement": "solvation free energy, 298 K", "setting": "in CCCCCCCC", "value": -3.23, "unit": "kcal/mol"}, {"measurement": "solvation free energy, 298 K", "setting": "in CCCCCCCCCCCCCCCC", "value": -3.18, "unit": "kcal/mol"}, {"measurement": "solvation free energy, 298 K", "setting": "in CCCCCCCCO", "value": -4.64, "unit": "kcal/mol"}, {"measurement": "solvation free energy, 298 K", "setting": "in CCCCCO", "value": -3.7, "unit": "kcal/mol"}, {"measurement": "solvation free energy, 298 K", "setting": "in CCOC(C)=O", "value": -4.33, "unit": "kcal/mol"}, {"measurement": "solvation free energy, 298 K", "setting": "in CN1CCCC1=O", "value": -4.16, "unit": "kcal/mol"}, {"measurement": "solvation free energy, 298 K", "setting": "in CO", "value": -4.34, "unit": "kcal/mol"}, {"measurement": "solvation free energy, 298 K", "setting": "in NC=O", "value": -3.52, "unit": "kcal/mol"}, {"measurement": "solvation free energy, 298 K", "setting": "in O", "value": -3.12, "unit": "kcal/mol"}, {"measurement": "solvation free energy, 298 K", "setting": "in O=CN1CCOCC1", "value": -3.94, "unit": "kcal/mol"}, {"measurement": "solvation free energy, 298 K", "setting": "in [2H]O[2H]", "value": -3.11, "unit": "kcal/mol"}]}
{"compound": "Cc1[nH]n(-c2ccccc2)c(=O)c1C(=O)c1ccccc1", "values": [{"measurement": "solvation free energy, 298 K", "setting": "in O", "value": -11.6, "unit": "kcal/mol"}]}
{"compound": "CSc1nc(N=[N+]=[N-])nc(NC(C)C)n1", "values": [{"measurement": "solvation free energy, 298 K", "setting": "in O", "value": -8.19, "unit": "kcal/mol"}]}
{"compound": "Cc1cccc(C(C)C)c1", "values": [{"measurement": "solvation free energy, 298 K", "setting": "in O", "value": -0.72, "unit": "kcal/mol"}]}
{"compound": "COC(F)(F)C(Cl)Cl", "values": [{"measurement": "solvation free energy, 298 K", "setting": "in O", "value": -1.12, "unit": "kcal/mol"}]}
{"compound": "CNCCc1ccc(OC)cc1", "values": [{"measurement": "solvation free energy, 298 K", "setting": "in C=CCCCCCCC=C", "value": -9.47, "unit": "kcal/mol"}, {"measurement": "solvation free energy, 298 K", "setting": "in O", "value": -7.94, "unit": "kcal/mol"}]}
{"compound": "COC(C)(OC)OC", "values": [{"measurement": "solvation free energy, 298 K", "setting": "in O", "value": -4.42, "unit": "kcal/mol"}]}
{"compound": "CCOCOCC", "values": [{"measurement": "solvation free energy, 298 K", "setting": "in CCCCCl", "value": -4.67, "unit": "kcal/mol"}, {"measurement": "solvation free energy, 298 K", "setting": "in ClC(Cl)(Cl)Cl", "value": -4.97, "unit": "kcal/mol"}, {"measurement": "solvation free energy, 298 K", "setting": "in ClCCl", "value": -5.47, "unit": "kcal/mol"}, {"measurement": "solvation free energy, 298 K", "setting": "in O", "value": -2.96, "unit": "kcal/mol"}]}
{"compound": "Cc1ccc(C2(C)CCCC2(C)C)cc1", "note": "(centres undefined)", "values": [{"measurement": "solvation free energy, 298 K", "setting": "in O", "value": -0.61, "unit": "kcal/mol"}]}
{"compound": "CC=CCC", "values": [{"measurement": "solvation free energy, 298 K", "setting": "in CN(C)C=O", "value": -2.46, "unit": "kcal/mol"}]}
{"compound": "CN(C)c1ccccc1", "values": [{"measurement": "solvation free energy, 298 K", "setting": "in CCCCCCCCCCCCCCCC", "value": -6.4, "unit": "kcal/mol"}, {"measurement": "solvation free energy, 298 K", "setting": "in O", "value": -3.45, "unit": "kcal/mol"}]}
{"compound": "C=C(C)C1CCC(C)C2=C(C1)C(C)CC2", "note": "(centres undefined)", "values": [{"measurement": "solvation free energy, 298 K", "setting": "in O", "value": -0.01, "unit": "kcal/mol"}]}
{"compound": "C=CC=O", "values": [{"measurement": "solvation free energy, 298 K", "setting": "in CCCCCO", "value": -3.22, "unit": "kcal/mol"}, {"measurement": "solvation free energy, 298 K", "setting": "in CCCCO", "value": -3.21, "unit": "kcal/mol"}, {"measurement": "solvation free energy, 298 K", "setting": "in O", "value": -3.16, "unit": "kcal/mol"}]}
